# In patent US8343990B2, “Substituted cyclopropyl compounds, compositions containing such compounds and methods of treatment” (Merck Sharp & Dohme Corp., priority 2008, dated 2013):
# Biological target: T1, GPR119 receptor (UniProt Q8TDV5, S309L, species not given)
# T1 sequence (Q8TDV5 1-335 S309L): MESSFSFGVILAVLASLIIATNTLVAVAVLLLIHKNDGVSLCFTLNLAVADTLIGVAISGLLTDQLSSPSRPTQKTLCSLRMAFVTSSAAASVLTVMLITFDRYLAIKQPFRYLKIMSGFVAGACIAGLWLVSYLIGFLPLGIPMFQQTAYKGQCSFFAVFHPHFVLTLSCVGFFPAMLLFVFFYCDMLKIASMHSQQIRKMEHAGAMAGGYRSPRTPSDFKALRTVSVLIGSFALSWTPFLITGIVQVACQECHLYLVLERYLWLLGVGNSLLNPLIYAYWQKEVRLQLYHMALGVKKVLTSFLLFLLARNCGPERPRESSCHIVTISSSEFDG
# Assay: GPR119 signaling, cyclic AMP (cAMP) homogenous time resolved fluorescence (HTRF) assay
# Format: cell-based
# Conditions: CHO cells with Gα15 and murine GPR119, or HEK293 Flp-In cells with human GPR119 S309L; table does not say which; read-out: Activity: inflection points, denoted as EC50 values (agonist activation of GPR119, cAMP)
# From the text: Measurement of GPR119 Signaling Using a Cyclic AMP (cAMP) Homogenous Time Resolved Fluorescence (HTRF) Assay
# Chinese hamster ovary (CHO) cell lines stably transfected with the permissive guanine nucleotide binding protein alpha 15 (Gα15) and […] GPR119 were maintained in DMEM media containing FBS, penicillin-streptomycin, puromycin, and G418 (geneticin). Alternatively, human embryonic kidney (HEK)293 Flp-In cells (Invitrogen, Carlsbad, Calif.) were stably transfected with a human SNP variant (S309L) of GPR119 and maintained in DMEM media containing FBS, penicillin-streptomycin, and hygromycin. Agonist activation of the GPR119 receptor was measured in receptor transfected cells described above, treated with compounds of this invention, using a commercial homogenous time resolved fluorescence (HTRF) kit for measurement of cAMP (CisBio, Bedford, Mass.). The assay was performed in 96-well half-volume plates (murine) or 384-well plates (human) following the manufacturers instructions. Briefly, suspended cells were incubated with a dose titration of test compound at room temperature for 60 min, lysed, and incubated with HTRF reagents for an additional 60 min. The plate was read using an Envision multilabel reader (Perkin Elmer) adjusted to read time resolved fluorescence and the cAMP concentrations were extrapolated from a cAMP calibration curve. […] The concentration of test compound required to stimulate a half-maximal response (EC50), and efficacy as compared to an internal agonist control, was determined from a sigmoidal 4-parameter curve fit of the resulting plot of normalized activity versus compound concentration.
row,Structure (SMILES),EC50
1,"Cc1cc(OC[C@@H]2C[C@H]2CC2CCN(c3ncc(Cl)cn3)CC2)nc(C#N)n1 (racemic) [Ex 114, rac-trans-4-[(2-{[1-(5-chloropyrimidin-2-yl)piperidin-4-yl]methyl}cyclopropyl)methoxy]-6-methylpyrimidine-2-carbonitrile]",50 to 200 nM
2,"CS(=O)(=O)c1ccc(OC[C@@H]2C[C@H]2CC2CCN(c3ncc(Cl)cn3)CC2)cc1 (racemic) [Ex 101, rac-trans-5-chloro-2-{4-[(2-{[4-(methylsulfonyl)phenoxy]methyl}cyclopropyl)methyl]piperidin-1-yl}pyrimidine]",50 to 200 nM
3,"Clc1cnc(N2CCC(C3CC3CCOc3ccc(-n4cnnn4)cc3)CC2)nc1 (racemic) [Ex 30, rac cis-5-chloro-2-[4-(2-{2-[4-(1H-tetrazol-1-yl)phenoxy]ethyl}cyclopropyl)piperidin-1-yl]pyrimidine]",< 10 nM
4,"Clc1cnc(N2CCC(C3CC3CCOc3ccc(-c4nnco4)cc3)CC2)nc1 (racemic) [Ex 15, rac cis-5-chloro-2-[4-(2-{2-[4-(1,3,4-oxadiazol-2-yl)phenoxy]ethyl}cyclopropyl)piperidin-1-yl]pyrimidine]",10 to 50 nM
5,"N#Cc1ccc(OCC2CC2CC2CCN(c3ncc(Cl)cn3)CC2)c(F)c1 (racemic) [Ex 115, rac-trans-4-[((1S,2S)-2-{[1-(5-chloropyrimidin-2-yl)piperidin-4-yl)methyl}cyclopropyl)methoxy]-3-fluorobenzonitrile]",10 to 50 nM
6,"Cc1nnc(-c2cccc(OCCC3CC3C3CCN(c4ncc(Cl)cn4)CC3)c2)o1 (racemic) [Ex 8, rac cis-5-chloro-2-[4-(2-{2-[3-(5-methyl-1,3,4-oxadiazol-2-yl)phenoxy]ethyl}cyclopropyl)piperidin-1-yl]pyrimidine]",> 200 nM
7,"Clc1cnc(N2CCC(C3CC3CCOc3ccc(-n4nccn4)cc3)CC2)nc1 (racemic) [Ex 28, rac cis-5-chloro-2-[4-(2-{2-[4-(2H-1,2,3-triazol-2-yl)phenoxy]ethyl}cyclopropyl)piperidin-1-yl]pyrimidine]",50 to 200 nM
8,"Clc1cnc(N2CCC([C@H]3C[C@@H]3CCOc3ccc(-n4cncn4)cc3)CC2)nc1 [Ex 95, 5-chloro-2-[4-((1R,2R)-2-{2-[4-(1H-1,2,4-triazol-1-yl)phenoxy]ethyl}cyclopropyl)piperidin-1-yl]pyrimidine]",10 to 50 nM
9,"Clc1cnc(N2CCC(C3CC3CCOc3ccc(-n4cncn4)cc3)CC2)nc1 (racemic) [Ex 25, rac cis-5-chloro-2-[4-(2-{2-[4-(1H-1,2,4-triazol-1-yl)phenoxy]ethyl}cyclopropyl)piperidin-1-yl]pyrimidine]",10 to 50 nM
10,"Cc1nnc(-c2ccc(OC[C@@H]3C[C@H]3CC3CCN(c4ncc(Cl)cn4)CC3)cc2F)o1 [Ex 109, 5-chloro-2-{4-[((1R,2R)-2-{[3-fluoro-4-(5-methyl-1,3,4-oxadiazol-2-yl)phenoxy]methyl}cyclopropyl)methyl]piperidin-1-yl}pyrimidine]",50 to 200 nM
11,"Cc1nc(C#N)cc(OCC[C@@H]2C[C@@H]2C2CCN(c3ncc(Cl)cn3)CC2)n1 (racemic) [Ex 51, Rac-cis-6-(2-{2-[1-(5-chloropyrimidin-2-yl)piperidin-4-yl]cyclopropyl}ethoxy)-2-methylpyrimidine-4-carbonitrile]",< 10 nM
12,"N#Cc1ccc(OCC[C@H]2C[C@@H]2C2CCN(c3ncc(Cl)cn3)CC2)cc1F [Ex 94, 4-(2-{(1R,2R)-2-[1-(5-chloropyrimidin-2-yl)piperidin-4-yl]cyclopropyl}ethoxy)-2-fluorobenzonitrile]",50 to 200 nM
13,"Clc1cnc(N2CCC(C3CC3CCOc3ccc(-c4ncno4)cc3)CC2)nc1 (racemic) [Ex 18, rac cis-5-chloro-2-[4-(2-{2-[4-(1,2,4-oxadiazol-5-yl)phenoxy]ethy]}cyclopropyl)piperidin-1-yl]pyrimidine]",50 to 200 nM
14,"O=C(NC1CC1)c1ccc(OC[C@H]2C[C@@H]2CC2CCN(c3ncc(Cl)cn3)CC2)cc1F [Ex 108, 4-[((1S,2S)-2-{[1-(5-chloropyrimidin-2-yl)piperidin-4-yl]methyl}cyclopropyl)methoxy]-N-cyclopropyl-2-fluorobenzamide]",10 to 50 nM
15,"Clc1cnc(N2CCC(C3CC3CCOc3ccc(-c4ncon4)cc3)CC2)nc1 (racemic) [Ex 17, rac cis-5-chloro-2-[4-(2-{2-[4-(1,2,4-oxadiazol-3-yl)phenoxy]ethyl}cyclopropyl)piperidin-1-yl]pyrimidine]",50 to 200 nM
16,"Cc1nnc(-c2ccc(OCC[C@H]3C[C@@H]3C3CCN(c4ncc(Cl)cn4)CC3)cc2F)o1 [Ex 96, 5-chloro-2-[4-((1R,2R)-2-{2-[3-fluoro-4-(5-methyl-1,3,4-oxadiazol-2-yl)phenoxy]ethyl}cyclopropyl)piperidin-1-yl)pyrimidine]",10 to 50 nM
17,"Cc1cnc(N2CCC([C@H]3C[C@H]3CCOc3cc(C#N)nc(C)n3)CC2)nc1 (racemic) [Ex 40, Rac-cis-2-methyl-6-(2-{2-[1-(5-methylpyrimidin-2-yl)piperidin-4-yl]cyclopropyl}ethoxy)pyrimidine-4-carbonitrile]",< 10 nM
18,"Cc1nc(C#N)cc(OCC[C@@H]2C[C@@H]2C2CCN(c3cc(C)c(Cl)cn3)CC2)n1 (racemic) [Ex 45, Rac-cis-6-(2-{2-[1-(5-chloro-4-methylpyridin-2-yl)piperidin-4-yl]cyclopropyl}ethoxy)-2-methylpyrimidine-4-carbonitrile]",10 to 50 nM
19,"Cc1nnc(-c2ccc(OCC[C@H]3C[C@H]3C3CCN(c4ncccn4)CC3)cc2F)o1 (racemic) [Ex 85, Rac-cis-2-[4-(2-{2-[3-fluoro-4-(5-methyl-1,3,4-oxadiazol-2-yl)phenoxy]ethyl}cyclopropyl)piperidin-1-yl]pyrimidine]",< 10 nM
20,"N#Cc1cc(OCC[C@@H]2C[C@@H]2C2CCN(c3ncc(Cl)cn3)CC2)ncn1 (racemic) [Ex 37, Rac-cis-6-(2-{2-[1-(5-chloropyrimidin-2-yl)piperidin-4-yl]cyclopropyl}ethoxy)pyrimidine-4-carbonitrile]",< 10 nM
21,"Cc1nc(C#N)cc(OCC[C@@H]2C[C@@H]2C2CCN(c3ncc(C)c(C)n3)CC2)n1 (racemic) [Ex 44, Rac-cis-6-(2-{2-[1-(4,5-dimethylpyrimidin-2-yl)piperidin-4-yl]cyclopropyl}ethoxy)-2-methylpyrimidine-4-carbonitrile]",10 to 50 nM

# Continued, values first:
row,EC50,Structure (SMILES)
1,< 10 nM,"Clc1cnc(N2CCC(C3CC3CCOc3ccc(-n4ccnn4)cn3)CC2)nc1 (single isomer, unassigned) [Ex 55a, Chiral cis-5-chloro-2-{4-[2-(2-{[5-(1H-1,2,3-triazol-1-yl)pyridin-2-yl]oxy}ethyl)cyclopropyl]piperidin-1-yl}pyrimidine]"
2,< 10 nM,"CS(=O)(=O)c1ccc(OCC[C@H]2C[C@H]2C2CCN(c3ncc(Cl)cn3)CC2)nc1 (racemic) [Ex 6a, rac-cis 5-chloro-2-{-4-[2-(2-{[5-(methylsulfonyl)pyridin-2-yl]oxy}ethyl)cyclopropyl]piperidin-1-yl}pyrimidine]"
3,< 10 nM,"Clc1cnc(N2CCC(C3CC3CCOc3ccc(-n4cnnn4)cc3)CC2)nc1 (single isomer, unassigned) [Ex 83cF, cis-5-chloro-2-[4-(2-{2-[4-(1H-tetrazol-1-yl)phenoxy]ethyl}cyclopropyl)piperidin-1-yl]pyrimidine]"
4,< 10 nM,"Fc1cc(OCCC2CC2C2CCN(c3ncc(Cl)cn3)CC2)ccc1-n1cnnn1 (single isomer, unassigned) [Ex 83dS, cis-5-chloro-2-[4-(2-{2-[3-fluoro-4-(1H-tetrazol-1-yl)phenoxy]ethyl}cyclopropyl)piperidin-1-yl]pyrimidine]"
5,< 10 nM,"Cc1cnc(N2CCC(C3CC3CCOc3ccc(-n4cnnn4)c(F)c3)CC2)nc1 (racemic) [Ex 30e, rac cis-2-[4-(2-{2-[3-fluoro-4-(1H-tetrazol-1-yl)phenoxy]ethyl)cyclopropyl)piperidin-1-yl]-5-methylpyrimidine]"
6,10 to 50 nM,"Fc1cc(OCCC2CC2C2CCN(c3ncc(Cl)cn3)CC2)ccc1-n1cnnn1 (single isomer, unassigned) [Ex 83dF, cis-5-chloro-2-[4-(2-{2-[3-fluoro-4-(1H-tetrazol-1-yl)phenoxy]ethyl}cyclopropyl)piperidin-1-yl]pyrimidine]"
7,< 10 nM,"Fc1cnc(N2CCC(C3CC3CCOc3ccc(-n4ccnn4)cc3)CC2)nc1 (single isomer, unassigned) [Ex 83bS, cis-5-fluoro-2-[4-(2-{2-[4-(1H-1,2,3-triazol-1-yl)phenoxy]ethyl}cyclopropyl)piperidin-1-yl]pyrimidine]"
